# From patent US20200222400A1, “METHODS FOR THE TREATMENT OF NEUROLOGICAL DISORDERS” (Yumanity Therapeutics, Inc., priority 2019, published 2020)
# How the values were obtained:
# SCD = experiment: Fatty acid saturation in guinea pig brain after oral SCD inhibitors (GC-FID of FAME); assay type: in vivo; conditions: oral 25 mg/kg twice daily 5 days, vs vehicle
# Experimental: FIG. 19A-FIG. 19F are a series of graphs showing an evaluation of fatty acid saturation in guinea pig brain after oral administration of SCD inhibitors. Guinea pigs were dosed orally with SCD inhibitors twice daily (every 12 hours) for 5 days. Guinea pigs were dosed with vehicle, SCD5 Selective Inhibitor 1 (“SCD5-SI-1”), SCD5 Selective Inhibitor 2 (“SCD5-SI-2”), CAY10566 (“CAY”) or SCD1/SCD5 Inhibitor 1 (“SCD1/5-1”), all compounds at 25 mg/kg with a volume-matched vehicle control. Four hours after the last dose on day 5, guinea pigs were sacrificed, and brains were removed after whole-body saline perfusion. […] Samples were evaluated on a gas chromatograph with a flame ionization detector (GC-FID) to quantify a comprehensive panel of fatty acid species. Brain samples were evaluated for levels of 16 (FIG. 19A) and 18 (FIG. 19B) carbon-containing fatty acids (C16, C18 respectively), and the desaturation index (DI) was calculated by taking the ratio of desaturated to saturated fatty acid for each species. […] Brain samples were evaluated for the relative levels of the positional isomers of C16, including C16:1 n7 palmitoleic acid (FIG. 19C) or C16:1 n9 monounsaturated fatty acids (FIG. 19D). […] Data was analyzed by one-way ANOVA with Tukey's post-hoc test to account for multiple comparisons. ** p<0.01, *** p<0.005, **** p<0.0001. […]
# [1] = test system: alpha-synuclein transfected U2OS cells; experiment: U2OS ATP assay (alpha-synuclein toxicity); assay type: cell-based, human; conditions: 72 h, titration
# Experimental: U2OS cells were trypsinized using 0.25% trypsin-EDTA (Thermo Fisher) for 5 min at 37° C. followed by centrifugation at 800 rpm for 5 min at room temperature. Cell pellets were re-suspended in SE solution (Lonza Biologics, Inc.) at a density of […]. Alpha-synuclein wild-type or empty control (pcDNA) plasmids were transfected at a ratio of […] per 1,000,000 cells. For genetic modifier studies, mRab1a was titrated at various concentrations in the presence of SNCA plasmids. Nucleofection was performed using 4D-NUCLEOFECTOR™ System (Lonza Biosciences, Inc.) under program code CM130 in either 20 μL Nucleocuvette™ strips or 100 μl single Nucleocuvettes™. Cells recovered at room temperature for 10-15 minutes after nucleofection before further handling. Pre-warmed medium was added and cells were thoroughly but gently mixed to a homogenous suspension before plating. Cells were seeded at 2×10^4 cells/100 μl/well into 96 well PLD-coated white plates (Corning, Inc.) using a customized semi-automated pipetting program (VIAFLO 384/96, Integra Biosciences).
# Powders of reference SCD inhibitors (CAY10566, A939572 and MF-438) were resuspended and serial diluted in DMSO. […] ATP content was then measured using the CellTiter-Glo® kit (Promega) with luminescence signals measured on an EnVision multimode plate reader (Perkin Elmer).
smiles,measurement,setting,value
Cc1nnc(-c2ccc(N3CCC(Oc4cc(F)ccc4Cl)CC3)nn2)o1 [CAY10566],"C16 desaturation index (DI), brain",SCD,decreased the C16 DI
same,cellular ATP levels,[1],significantly reversed alpha-synuclein-dependent decreases in ATP levels in a concentration-dependent fashion
